Data published in US9408891B2, “Methods of using gelsolin to treat or prevent bacterial sepsis” (priority 2003, dated 2016).
“Also recorded” adds a separate entry of the source. Ends that are not written are not given here. * marks the point of attachment. RhodamineB = CCN(CC)c1ccc2c(-c3ccccc3C(=O)*)c3ccc(=[N+](CC)CC)cc-3oc2c1

Tests used:
gelsolin = gelsolin (Homo sapiens, UniProt P06396); test: Actin severing activity of gelsolin (50 nM) with LTA or lysolipids; assay type: biochemical; conditions: for inhibition of gelsolin by lysolipids: lipid below 1 μM
Sequence of gelsolin (P06396 28-782): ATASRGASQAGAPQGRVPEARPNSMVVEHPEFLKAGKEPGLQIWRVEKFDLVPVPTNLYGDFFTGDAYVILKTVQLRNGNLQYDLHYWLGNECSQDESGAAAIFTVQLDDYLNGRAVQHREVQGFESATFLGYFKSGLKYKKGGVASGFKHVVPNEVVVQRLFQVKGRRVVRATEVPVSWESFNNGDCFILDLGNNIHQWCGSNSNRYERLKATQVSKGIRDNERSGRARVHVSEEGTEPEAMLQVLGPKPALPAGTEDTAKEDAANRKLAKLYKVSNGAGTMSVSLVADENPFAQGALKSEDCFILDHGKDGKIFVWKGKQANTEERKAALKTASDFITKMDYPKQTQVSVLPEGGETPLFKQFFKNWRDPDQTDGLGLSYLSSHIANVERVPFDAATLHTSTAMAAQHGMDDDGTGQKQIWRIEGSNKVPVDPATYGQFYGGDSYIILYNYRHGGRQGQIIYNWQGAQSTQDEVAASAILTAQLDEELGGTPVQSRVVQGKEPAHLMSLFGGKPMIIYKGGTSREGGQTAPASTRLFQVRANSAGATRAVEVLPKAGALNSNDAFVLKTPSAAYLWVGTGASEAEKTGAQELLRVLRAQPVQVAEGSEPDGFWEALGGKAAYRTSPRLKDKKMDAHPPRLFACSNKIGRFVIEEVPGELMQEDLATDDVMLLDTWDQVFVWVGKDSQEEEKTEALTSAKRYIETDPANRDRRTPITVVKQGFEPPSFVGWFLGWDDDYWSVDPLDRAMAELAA
Experimental: (§1) The tested gelsolin concentration was 50 nM; LTA ranged from 0-50 μM; Pyrene-F-actin was 0.3 μM. Recording changes in fluorescently-labeled (rhodamine B-labeled) gelsolin peptide PBP10 (10 μM), indicates a specific interaction between gelsolin and LTA.

human platelets = test: Collagen-induced aggregation of gel-filtered platelets; assay type: cell-based
Experimental: To isolate human platelets, blood from healthy volunteers was collected in acid-citrate dextrose. Platelet-rich plasma obtained after centrifugation (15 minutes, 110×g) at room temperature, was supplemented with apyrase (0.5 U/ml) (Sigma-Aldrich) to degrade excess nucleotides. Platelets were sedimented by centrifugation (10 minutes, 1000×g), suspended in buffer A (139 mM NaCl, 2.8 mM KCl, 0.8 mM MgCl2, 0.8 mM KH2PO4, 8.9 mM NaHCO3, 10 mM HEPES, 5.6 mM glucose, 0.3% albumin, pH 7.35) and filtered on a 50 ml column of Sepharose 2B to obtain gel-filtered platelets (GFP).
Platelet aggregation was initiated by adding collagen (10 μg/ml) (Chrono-Log Corp., Havertown, Pa.). Platelet aggregation was monitored using a Chronolog Lumi-Aggregometer (Chrono-Log Corp.). Changes in light transmission were recorded for 10 minutes, using a PowerLab/200 instrument and MacLab Chart program Version 3.2. When required before activation, the platelet suspension was reacted with LPS, or LPS-preincubated with the SEQ ID No:1 peptide (QRLFQVKGRR).

[1] = Neutron scattering of LPS with gelsolin peptide; assay type: physicochemical; conditions: preliminary neutron scattering
Description: The molecular structure of LPS and its complexes with proteins can be measured at nm resolution by X-ray and neutron scattering, as well as by electron and atomic force microscopy.
At present, the calculated diameter (36 nm) is greater than that which has been previously reported for pure LPS micelles, and the difference in size may reflect another structural feature. In additional experiments with more variations in gelsolin/LPS or peptide, LPS ratios will reveal if there are significant changes in LPS particle structure when these peptides bind LPS.

[2] = Solid phase binding of 3H-LPS to peptide-coated wells; parameters: species or system Salmonella minnesota; conditions: for binding of 3H-LPS to peptide-coated surfaces: solid phase, wells coated with peptide
Experimental: To provide chemical and functional evidence that gelsolin binds LPS through its lipid-binding domain, a solid phase assay was conducted in which radiolabeled LPS was added to wells coated with different amounts of rhodamine-B-labeled-SEQ ID No:1 (rhodamine-B-QRLFQVKGRR, derived from the PIP2-binding site of gelsolin and termed “PBP10”), or to a truncated peptide (rhodamine-B-QRL), in the absence or presence of unlabeled LPS, respectively.
Tritium-labeling of LPS was done by a modification of the procedure of Watson and Riblet (Watson et al., J. Immunol 114:1462-8 (1975)). A sample (2 mg) of LPS from Salmonella minnesota Re595 (Sigma Chemical Co., St. Louis, Mo.) was oxidized (150 minutes, 20° C.) with sodium periodate (3×10^−2 M). After destruction of the oxidant with 1.0 M ethylene glycol, aldehyde groups were reduced (18 hours at 4° C.) with an ice-cold solution of NaB [^3H]4 (0.46 GBq, 481 GBq/mmole, wherein GBq refers to a unit of radioactivity) (Amersham-Pharmacia Biotech, Buckinghamshire, England) in 200 μl of ice-cold borate buffer (0.05 M, pH 9.5). Excess sodium borohydride was destroyed with 5 μl of acetic acid. After two washings (centrifugation at 100,000×g for 15 minutes) in 400 μl of an ice-cold water-ethanol mixture (1:1 by vol.), the radiolabeled [^3H]-LPS (9×10^5 cpm/μg; 2×10^3 cpm/pmole) was stored at −20° C. until used.
To measure [^3H] labeled-LPS-binding, polystyrene ELISA-type microplates (96 wells) were coated with PBP10 or rhodamine-B-QRL (RhB-QRL) by incubation for 18 hours at 4° C. with a solution (100 μl, 500 pmole/well) in saline. After three washings with 100 μl saline, the wells were then incubated at room temperature with [^3H]-LPS (360,000 c.p.m.), in the presence or absence of unlabeled LPS (20 μg/well), in a binding medium (100 μl) containing bovine serum albumin (50 μg) in saline. After 3 hours of incubation, the plates were washed three times with 100 μl saline washes, and the remaining bound radioactivity was measured.

[3] = biological target: T1, PBP10 (PIP2-binding site of gelsolin) (Homo sapiens, UniProt P06396); test: Rhodamine-B fluorescence change of gelsolin peptide PBP10 after adding lipids; conditions: for fluorescence quenching / change of rhodamine-B peptide: 2 μM peptide, buffer A pH 7.0, 15 min
T1 construct: made in house; host or cells: solid phase peptide synthesis
Experimental: (§2) Therefore, to determine changes of gelsolin OD at 280 nm, different amounts of LPS, LPA and PS were added to recombinant human gelsolin (rhGLS) solutions and OD emission spectra were recorded using spectrophotometer Genesys 6 (Thermo-Spectronic, USA).
Interaction of LPS and gelsolin was examined using rhodamine B- and pyrene-labeled SEQ ID No:1 (QRLFQVKGRR). The effect of LPS on gelsolin was determined in terms of the rhodamine-B fluorescent changes of PBP10 peptide in the presence of different lipids (FIG. 1C); and the fluorescence emission spectra of pyrene-labeled SEQ ID No:1 (2 μM) in the presence of LPS from Escherichia coli (1.2 μM), PIP2 (0.82 μM) and LPA (0.82 μM) (FIG. 1D) The results using the pyrene-derivatized gelsolin peptide confirmed the LPS induced clustering of the peptide with resulting excimer fluorescence of the pyrene group, which was evident as a large increase in fluorescence emission at 480 nm.
as §1

[4] = tested on: NF-κB translocation in rat primary astrocytes; test: NF-κB translocation to the nucleus in astrocytes; assay type: cell-based; conditions: astrocytes, 2 hour; LPS 2 μM or TNF-α 10 ng/ml
Experimental: Rat primary astrocytes were obtained from prenatal rats and maintained for 14 days in culture before use. Embryos (E17-E19) were removed by caesarian section from a Sprague-Dawley rat and the hippocampi were surgically removed. The tissue was digested in trypsin/DNAse at 37° C., centrifuged (1000×5 min) and filtered to derive suspensions from each pup. Cells were grown in an incubator at 37° C. and 5% CO2 in DMEM (Dulbecco's Modified Eagle's Medium; BioWhittaker/Cambrex BioScience, East Rutherford, N.J.), supplemented with Ham's F12 (Sigma-Aldrich, St. Louis, Mo.) and 5% fetal bovine serum (FBS) (Hyclone, Logan, Utah) for 7 days, followed by an additional 7 days in Neurobasal medium (Gibco, Grand Island, N.Y.) also supplemented with 5% FBS, 2 mM l-glutamine, 50 μg/ml streptomycin and 50 U/ml penicillin. In each experiment, the medium was changed to serum-free at 6-12 hours prior to addition of LPS, TNF-α, or gelsolin.
HAECs and astrocytes cultures were incubated for 10 minutes in medium containing 10 μg/ml LPS alone, or LPS that had been pre-incubated with 0.16 mg/ml of human gelsolin. Cultures were fixed with ice-cold methanol and immunostained for F-actin with fluorescein isothiocyanate (FITC)-labeled phalloidin (Molecular Probes, Eugene, Oreg.). In astrocyte cultures, NF-κB translocation was manipulated by a 2 hour incubation in serum-free medium containing one of the following: 10 ng/ml TNF-α, 10 μg/ml LPS alone, or LPS that had been preincubated with 0.16 mg/ml human gelsolin. Location of transcription factor nuclear factor-kappaB (NF-κB) was observed using a monoclonal antibody to NF-κB (Molecular Probes), and cell nuclei were detected by counter-staining with 4′, 6-diamidino-2-phenylindole dihydrochloride (DAPI) (Sigma).

[5] = biological target: T2, recombinant human gelsolin (rhGLS) (Homo sapiens, UniProt P06396); test: Change of gelsolin OD at 280 nm after adding lipids; assay type: binding; conditions: OD 280 nm
T2 construct: purchased Biogen IDEC, Inc., Cambridge, Mass; host or cells: E. coli
T2 sequence (P06396 28-782): as above
Experimental: as §2

[6] = biological target: T2, recombinant human gelsolin (rhGLS); test: Actin filament severing activity of purified gelsolin (pyrene F-actin depolymerization); assay type: biochemical; conditions: molar basis comparison
Experimental: To determine gelsolin's severing activity, rates of fluorescence decrease were evaluated during depolymerization. Monomeric G-actin was prepared from an acetone powder of rabbit skeletal muscle according to previously published methods (Spudich et al., J. Biol. Chem […]). The non-polymerizing solution contained 2 mM TRIS, 0.2 mM CaCl2, 0.5 mM ATP (adenosine triphosphate), 0.2 mM DTT (dithiothreitol) pH 7.4. Actin was polymerized by adding 150 mM KCl and 2 mM MgCl2 to the G-actin solutions and incubating for 1 hour at room temperature.
For F-actin severing assays, in general, a small volume (typically 5 μl) of the gelsolin composition is added to a similar volume of pyrene-labeled F-actin at a concentration adjusted to provide an actin:gelsolin ratio of approximately 10:1 (typically 1 μM gelsolin and 10 μM actin). This mixture is the diluted to 0.5 μM in a larger volume of F-actin buffer, and the filament severing efficiency is calculated from the initial slope of the fluorescence change. This reflects the rate of depolymerization that, in turn, is proportional to the number of cuts made by gelsolin. The LPS/gelsolin reaction can be done under any ionic condition, and the addition to F-actin requires the presence of […] Ca^2+ to activate the gelsolin. […] The actin nucleation reaction is similar except that in the latter case, the gelsolin/LPS mixture is added to a more dilute solution of G-actin (typically, 1 or 2 μM) in low ionic strength buffer followed immediately by addition of 150 mM KCI and 2 mM MgCl2 to initiate polymerization.
(§3) As shown, recombinant human gelsolin (rhGLS) (FIG. 4A) and blood serum (FIG. 4B) severing activity was measured in 0.4 μM pyrene-labeled F-actin samples (polymerized with 50% pyrene-labeled G-actin), after adding gelsolin (16 nM)/serum (2.5 μl), or their combination with one of the following: LPS (from different species), PIP2 (phosphatidyl-inositol-4,5-bisphosphate), LPA (lysophosphatidic acid), lipid A (the LPS derivative lacking polysaccharide) or PS (phosphatidylserine). The fluorescence intensity of F-pyrene actin was then monitored for 10 minutes, and the severing activity was calculated based on decreasing fluorescence. Severing activity was determined from a decrease in rate of fluorescence during depolymerization, and the depolymerization rate was calculated from the slope of the early decrease in fluorescence.

[7] = biological target: T3, gelsolin activity in whole human serum (Homo sapiens, UniProt P06396); test: Actin filament severing activity of whole human serum; assay type: biochemical; conditions: larger amounts needed than with pure gelsolin
T3 construct: from tissue; host or cells: whole human serum (2.5 µl)
T3 sequence (P06396 28-782): as above
Experimental: as §3

[8] = tested on: human neutrophils / human aortic endothelial cells (HAEC); test: Neutrophil adhesion to LTA-stimulated HAEC; assay type: cell-based; conditions: LTA 10 μg/ml
Description: To investigate whether gelsolin can prevent gram-positive bacterial inflammation, the effect of LTA-mediated activation of human neutrophils was examined. Neutrophils were selected because their adhesion to human aorta endothelial cells (HAEC) is a hallmark of inflammation.
Neutrophils were isolated from human blood using the endotoxin-free Lympholyte-poly kit (Cedarlane, Ontario, Canada). The isolated neutrophil cells were resuspended in RPMI media. […] To quantify the adhesion, the neutrophils were labeled with calcein-AM (5 μM for 30 minutes at 37° C.).

CCCCCCCCCCCCC/C=C/[C@@H](O)[C@@H](N)COP(=O)(O)OCC[N+](C)(C)C [SPC, Sphingosylphosphocholine]
inhibition of gelsolin by lysolipids (gelsolin): at least as strongly as lysophosphatidic acid (LPA); also recorded: also inhibit gelsolin

QRLFQVKGRR (peptide fragment of gelsolin) [gelsolin SEQ ID No:1, Gelsolin residues 160-169 peptide]
reversal of LPS inhibition of collagen-induced platelet activation (human platelets; peptide added to LPS before addition to platelets, collagen 10 μg/ml): restored, in a peptide concentration-dependent manner
effect of peptide alone on collagen-mediated platelet functions (human platelets; without LPS): had no effect on collagen-mediated platelet functions
effect of peptide on calculated diameter of LPS [1]: small, but significant increase in calculated diameter of LPS

rhodamine-B-QRL
binding of 3H-LPS to peptide-coated surfaces [2]: did not bind LPS
fluorescence quenching / change of rhodamine-B peptide [3]: no fluorescence change

rhodamine-B-QRLFQVKGRR (RhodamineB-QRLFQVKGRR) [PBP10]
reduction of 3H-LPS binding by excess unlabeled LPS ([2]; 5-fold excess of unlabeled LPS): approximately 50%
binding of 3H-LPS to peptide-coated surfaces [2]: saturably bound; also recorded: bound in a saturable manner
inhibition of labeled LPS binding in the presence of excess LPS ([2]; unlabeled LPS 20 μg/well): substantial inhibition

platelet activating factor [PAF]
inhibition of gelsolin by lysolipids (gelsolin): do not inhibit gelsolin

TNF-α
induction of NF-κB translocation to the nucleus [4]: caused NF-κB translocation to the nucleoplasm

lysophosphatidic acid [LPA]
effect on absorbance of gelsolin [5]: diminished the absorbance of gelsolin
inhibitory effect on severing activity of purified gelsolin [6]: strongly inhibited
inhibition of gelsolin activity in whole human serum [7]: much less effective in serum than in pure solution; also recorded: appeared to lack its effect in serum

lipoteichoic acid [LTA]
binding to PBP10 judged by changes in PBP10 fluorescence ([3]; PBP10 10 μM): approximately the same avidity as PIP2; also recorded: approximately the same efficiency as PIP2; also recorded: binds to the PIP2-binding site within the PBP10 peptide
stimulation of neutrophil binding to the endothelial surface [8]: stimulated binding of calcein AM-labeled neutrophils
inhibition of gelsolin's actin severing activity (gelsolin; LTA 0-50 μM, pyrene-F-actin 0.3 μM): nearly as well as LPS does; also recorded: potent inhibitor

phosphatidylinositol-4,5-bisphosphate [PIP2]
fluorescence quenching / change of rhodamine-B peptide [3]: induced identical concentration-dependent fluorescence quenching
inhibition of gelsolin activity in whole human serum [7]: able to inhibit gelsolin activity

Lipid A
inhibitory effect on severing activity of purified gelsolin [6]: weaker but still significant inhibitory effect; also recorded: weaker, but detectable inhibition; also recorded: weaker, but still significant inhibitory effect
